Source: patent US20150056310A1, “COSMETIC METHOD FOR INCREASING COLLAGEN EXPRESSION IN SKIN COMPRISING TOPICALLY APPLYING AN EXTRACT OF QUASSIA AMARA” (BASF Beauty Care Solutions France S.A.S., priority 2013, published 2015)

System: type I collagen protein expression in dermal fibroblast cells
Test: Increase in type I collagen protein expression in dermal fibroblast cells cultured in vitro (immunolabelling, confocal microscopy, image analysis)
Format: cell-based, human
Details: 3 days, dermal fibroblasts, ratio relative to nontreated cells (NT = 1), mean of 4 assays
Procedure: A Q. amara wood extract at 5% (w/w) obtained according to Example 1a) was tested on dermal fibroblast cells cultured in vitro. The extract was tested at final concentrations of 0.01% and 0.05% by volume in the culture medium. Preferentially, the final concentration was 0.01% (v/v).
Specifically, dermal fibroblasts from the abdomen of a donor were seeded into a culture chamber (8-well) and amplified in FGM (Fibroblast Growth Media) culture medium containing an antibiotic, normocin, for 3 or 4 days until confluence, the cell stage for which 100% of the cultured cells adhere to one another, forming a uniform cell layer.
The confluent cells were then treated in this same culture medium for 3 days with a Q. amara wood extract at a final concentration in the culture medium of 0.01% or 0.05% (v/v) (Table 1). Other control active ingredients were tested (Table 1): vitamin C (50 μg/ml) or retinaldehyde (1 μM) or TGFβ1 (1 ng/ml) (Transforming Growth Factor β1).
The culture media (FGM) containing the dermal fibroblast cells treated with an active agent, or the nontreated culture media, contained moreover 5 μg/ml of vitamin C, enabling the newly synthesized collagen to be secreted out of the cell.
After 3 days of incubation, the cells were rinsed with a phosphate buffered saline (PBS) buffer containing calcium, magnesium and antibiotics, and then fixed in cold methanol for 10 minutes with a view to performing immunolabelling.
An anti-type I collagen antibody was added to the medium with a view to performing immunolabelling.
The increase in type I collagen protein expression was observed by confocal microscopy (LSM 700, Zeiss, LePecq, France) and quantified by image analysis (FIG. 1).
The type I collagen protein expression was calculated as a ratio relative to a theoretical expression equal to 1 in the case of nontreated fibroblast cells (NT). The mean protein expression was obtained through the mean of 4 distinct assays (Table 1).

## O=C1O[C@H]([C@@H](O)CO)C(O)=C1O [Vitamin C, vitamin C]
50 μg/ml
  Mean increase in type I collagen protein expression: 2.31

## CC1=C(/C=C/C(C)=C/C=C/C(C)=C/C=O)C(C)(C)CCC1 [Retinaldehyde, retinaldehyde]
1 μM
  Mean increase in type I collagen protein expression: 2.06

## TGFβ: Transforming Growth Factor β1, control active ingredient
1 ng/ml
  Mean increase in type I collagen protein expression: 1.42
